In the assay the target is T1, bacteriophage T4 DNA polymerase (Enterobacteria phage T4, UniProt P04415).
T1 construct: made in house
T1 sequence (P04415 1-898): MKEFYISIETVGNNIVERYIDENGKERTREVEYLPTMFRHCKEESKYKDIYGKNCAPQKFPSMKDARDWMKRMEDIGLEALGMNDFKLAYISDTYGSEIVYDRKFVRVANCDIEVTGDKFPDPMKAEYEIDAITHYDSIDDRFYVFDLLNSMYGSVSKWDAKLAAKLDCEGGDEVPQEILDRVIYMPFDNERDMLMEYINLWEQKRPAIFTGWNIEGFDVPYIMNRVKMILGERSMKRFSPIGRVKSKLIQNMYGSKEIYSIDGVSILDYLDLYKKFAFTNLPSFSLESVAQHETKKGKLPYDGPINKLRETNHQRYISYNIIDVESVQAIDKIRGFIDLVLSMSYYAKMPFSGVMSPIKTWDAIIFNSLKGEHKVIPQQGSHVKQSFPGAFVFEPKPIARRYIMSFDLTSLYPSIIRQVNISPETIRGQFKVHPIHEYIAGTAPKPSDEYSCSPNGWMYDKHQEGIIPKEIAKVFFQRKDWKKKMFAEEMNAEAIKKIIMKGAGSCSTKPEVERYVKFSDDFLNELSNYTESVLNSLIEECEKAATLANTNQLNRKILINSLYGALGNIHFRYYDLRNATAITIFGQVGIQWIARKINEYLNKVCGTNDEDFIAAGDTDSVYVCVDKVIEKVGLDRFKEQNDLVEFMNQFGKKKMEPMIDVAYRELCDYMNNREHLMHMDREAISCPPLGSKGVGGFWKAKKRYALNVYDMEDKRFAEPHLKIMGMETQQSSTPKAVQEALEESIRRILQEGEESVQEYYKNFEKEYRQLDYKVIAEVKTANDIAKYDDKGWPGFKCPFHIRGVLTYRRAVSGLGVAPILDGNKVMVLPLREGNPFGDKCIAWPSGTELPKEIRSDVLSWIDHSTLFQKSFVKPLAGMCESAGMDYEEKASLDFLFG
The assay can be described thus: Counter-screen against bacteriophage T4 DNA polymerase. The assay is classed as biochemical. As to conditions: DRC-2. The procedure, abridged:
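Purified T4 DNA polymerase, a B-family enzyme, served as the counter-screen enzyme. Compounds were tested in dose-response format and IC50 values were derived.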

Take `COc1cccc(C(=O)N2CCc3c(nc4cc(-c5ccccc5)[nH]n4c3=O)C2)c1OC` [Molecule 22, COc1c(OC)cccc1C(=O)N1CCc2c(C1)nc1n(c2=O)[nH]c(c1)c1ccccc1]: the “% inhibition T4 10'” value is given as -28% (concentration 40) and -28% (concentration 80). In addition, the “% inhibition T4 40'” value reads like this: (concentration 2.5) -13%; (concentration 40) -28%; (concentration 80) -27%. Moreover, the “% inhibition T4 90'” value is reported as -11% (concentration 2.5), -29% (concentration 10) and -28% (concentration 40). Besides, the “% inhibition T4 180'” value is on record as -11% (concentration 2.5), -27% (concentration 10), -29% (concentration 20) and -29% (concentration 40).
